Experimental data as given in patent EP2951180B1, “2,6,7,8 SUBSTITUTED PURINES AS HDM2 INHIBITORS” (Merck Sharp & Dohme Corp., priority 2013, dated 2014).
pIC50: −log10 of the molar value.

Target: T1, HDM2 (Homo sapiens, UniProt Q00987)
T1 construct: Thioredoxin (N); made in house; host or cells: E. coli strain BL21(DE3)Rosetta
Experiment: HDM2 FRET assay (inhibition of binding of FITC labeled p53-pocket peptide to HDM2)
Settings: Table 9; read-out: FRET IC50
Summary of the method: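 Compounds were tested in 10-point serial dilution against 0.5 nM recombinant HDM2 binding 3 nM fluorescein-labeled p53-pocket peptide. Detection used 0.25 nM terbium cryptate anti-6xHis antibody in PBS buffer containing 0.01% BSA and 0.01% Tween-20.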

T1 sequence (Q00987 17-125): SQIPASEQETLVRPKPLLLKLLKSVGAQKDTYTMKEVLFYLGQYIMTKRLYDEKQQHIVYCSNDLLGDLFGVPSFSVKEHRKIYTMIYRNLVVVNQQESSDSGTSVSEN

## C[C@@H](Nc1nc(-c2noc(=O)[nH]2)nc2nc(N(C)C3CCc4ccccc43)n(Cc3ccc(C(F)(F)F)cc3)c12)C1CCC1 (stereo partly drawn) [Example 9.102, 3-(6-{[(1R)-1-cyclobutylethyl]amino}-8-[2,3-dihydro-1H-inden-1-yl(methyl)amino]-7-[4-(trifluoromethyl)benzyl]-7H-purin-2-yl)-1,2,4-oxadiazol-5(4H)-one]
  pIC50: 7.22

## C[C@@H](Nc1nc(-c2noc(=O)[nH]2)nc2nc(N3CCCC3C3CCCCC3)n(Cc3ccc(C(F)(F)F)cc3)c12)C1CCC1 (stereo partly drawn) [Example 9.103, 3-(6-{[(1R)-1-cyclobutylethyl]amino}-8-(2-cyclohexylpyrrolidin-1-yl)-7-[4-(trifluoromethyl)benzyl]-7H-purin-2-yl)-1,2,4-oxadiazol-5(4H)-one]
  pIC50: 7.50

## CC(CN1CCCC1)CN(C)c1nc2nc(-c3noc(=O)[nH]3)nc(N[C@H](C)C3CCC3)c2n1Cc1ccc(C(F)(F)F)cc1 (stereo partly drawn) [Example 9.104, 3-(6-{[(1R)-1-cyclobutylethyl]amino}-8-[methyl(2-methyl-3-pyrrolidin-1-ylpropyl)amino]-7-[4-(trifluoromethyl)benzyl]-7H-purin-2-yl)-1,2,4-oxadiazol-5(4H)-one]
  pIC50: 7.20

## C[C@@H](Nc1nc(-c2noc(=O)[nH]2)nc2nc(N3CCCC3Cc3cccnc3)n(Cc3ccc(C(F)(F)F)cc3)c12)C1CCC1 (stereo partly drawn) [Example 9.105, 3-(6-{[(1R)-1-cyclobutylethyl]amino}-8-[2-(pyridin-3-ylmethyl)pyrrolidin-1-yl]-7-[4-(trifluoromethyl)benzyl]-7H-purin-2-yl)-1,2,4-oxadiazol-5(4H)-one]
  pIC50: 7.85

## C[C@@H](Nc1nc(-c2noc(=O)[nH]2)nc2nc(N3CCCCC3c3nccn3C)n(Cc3ccc(C(F)(F)F)cc3)c12)C1CCC1 (stereo partly drawn) [Example 9.106, 3-(6-{[(1R)-1-cyclobutylethyl]amino}-8-[2-(1-methyl-1H-imidazol-2-yl)piperidin-1-yl]-7-[4-(trifluoromethyl)benzyl]-7H-purin-2-yl)-1,2,4-oxadiazol-5(4H)-one]
  pIC50: 7.94

## Cc1noc(C2CCCCN2c2nc3nc(-c4noc(=O)[nH]4)nc(N[C@H](C)C4CCC4)c3n2Cc2ccc(C(F)(F)F)cc2)n1 (stereo partly drawn) [Example 9.107, 3-(6-{[(1R)-1-cyclobutylethyl]amino}-8-[2-(3-methyl-1,2,4-oxadiazol-5-yl)piperidin-1-yl]-7-[4-(trifluoromethyl)benzyl]-7H-purin-2-yl)-1,2,4-oxadiazol-5(4H)-one]
  pIC50: 8.29

## CC(C)CN1CCC(CN(C)c2nc3nc(-c4noc(=O)[nH]4)nc(N[C@H](C)C4CCC4)c3n2Cc2ccc(C(F)(F)F)cc2)C1 (stereo partly drawn) [Example 9.108, 3-(6-{[(1R)-1-cyclobutylethyl]amino}-8-(methyl{[1-(2-methylpropyl)pyrrolidin-3-yl]methyl}amino)-7-[4-(trifluoromethyl)benzyl]-7H-purin-2-yl)-1,2,4-oxadiazol-5(4H)-one]
  pIC50: 6.84

## C[C@@H](Nc1nc(-c2noc(=O)[nH]2)nc2nc(N3CCCCC3Cc3ccccc3)n(Cc3ccc(C(F)(F)F)cc3)c12)C1CCC1 (stereo partly drawn) [Example 9.109, 3-{8-(2-benzylpiperidin-1-yl)-6-{[(1R)-1-cyclobutylethyl]amino}-7-[4-(trifluoromethyl)benzyl]-7H-purin-2-yl}-1,2,4-oxadiazol-5(4H)-one]
  pIC50: 7.22

## CC1CCCCN1c1nc2nc(-c3noc(=O)[nH]3)nc(N[C@H](C)C3CCC3)c2n1Cc1ccc(C(F)(F)F)cc1 (stereo partly drawn) [Example 9.110, 3-(6-{[(1R)-1-cyclobutylethyl]amino}-8-(2-methylpiperidin-1-yl)-7-[4-(trifluoromethyl)benzyl]-7H-purin-2-yl)-1,2,4-oxadiazol-5(4H)-one]
  pIC50: 7.99

## COCC1CCCCN1c1nc2nc(-c3noc(=O)[nH]3)nc(N[C@H](C)C3CCC3)c2n1Cc1ccc(C(F)(F)F)cc1 (stereo partly drawn) [Example 9.111, 3-(6-{[(1R)-1-cyclobutylethyl]amino}-8-[2-(methoxymethyl)piperidin-1-yl]-7-[4-(trifluoromethyl)benzyl]-7H-purin-2-yl)-1,2,4-oxadiazol-5(4H)-one]
  pIC50: 8.06
